According to PubChem BioAssay AID2060510 (Molecular Pharmacology Branch, DTP, NCI, 2025):
Each block holds one compound with its values, some of them ahead of it.

Tested on: 439559-082-T-J2-PDC spheroids viability
Assay: Anticancer human tumor 439559-082-T-J2-PDC patient-derived colon adenocarcinoma cell line growth inhibition [GQUAD]
Details: for IC50: curve of first compound; for viability, T/C: stronger effect = lower value
Method in brief: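 Multi-cell-type spheroids of tumor cells with HUVEC and mesenchymal stem cells, treated with drug combinations. Concentrations descend in half-log steps from near clinical Cmax, or from 10 microM where Cmax is unknown; viability read-out.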

[1] = second compound 0.0316 µM, first compound 0.0316 µM
[2] = second compound 0.0316 µM, first compound 0.1 µM
[3] = second compound 0.0316 µM, first compound 0.316 µM
[4] = second compound 0.0316 µM, first compound 1 µM
[5] = second compound 0.0316 µM, first compound 3.16 µM
[6] = second compound 0.0316 µM, first compound 10 µM
[7] = second compound 0.1 µM, first compound 0.0316 µM
[8] = second compound 0.1 µM, first compound 0.1 µM
[9] = second compound 0.1 µM, first compound 0.316 µM
[10] = second compound 0.1 µM, first compound 1 µM
[11] = second compound 0.1 µM, first compound 3.16 µM
[12] = second compound 0.1 µM, first compound 10 µM
[13] = second compound 0.316 µM, first compound 0.0316 µM
[14] = second compound 0.316 µM, first compound 0.1 µM
[15] = second compound 0.316 µM, first compound 0.316 µM
[16] = second compound 0.316 µM, first compound 1 µM
[17] = second compound 0.316 µM, first compound 3.16 µM
[18] = second compound 0.316 µM, first compound 10 µM
[19] = second compound 1 µM, first compound 0.0316 µM
[20] = second compound 1 µM, first compound 0.1 µM
[21] = second compound 1 µM, first compound 0.316 µM
[22] = second compound 1 µM, first compound 1 µM
[23] = second compound 1 µM, first compound 3.16 µM
[24] = second compound 1 µM, first compound 10 µM
[25] = second compound 3.16 µM, first compound 0.0316 µM
[26] = second compound 3.16 µM, first compound 0.1 µM
[27] = second compound 3.16 µM, first compound 0.316 µM
[28] = second compound 3.16 µM, first compound 1 µM
[29] = second compound 3.16 µM, first compound 3.16 µM
[30] = second compound 3.16 µM, first compound 10 µM
[31] = second compound 10 µM, first compound 0.0316 µM
[32] = second compound 10 µM, first compound 0.1 µM
[33] = second compound 10 µM, first compound 0.316 µM
[34] = second compound 10 µM, first compound 1 µM
[35] = second compound 10 µM, first compound 3.16 µM
[36] = second compound 10 µM, first compound 10 µM
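Note: spheroids exposed to the agents for 7 days before readout.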
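Throughout, for viability, T/C: percent of luminescence signal in DMSO vehicle wells taken as 100% viability.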

IC50 (second compound 0.0316 µM): > 10 µM
IC50 (second compound 0.1 µM): > 10 µM
IC50 (second compound 0.316 µM): > 10 µM
IC50 (second compound 1 µM): > 10 µM
IC50 (second compound 3.16 µM): > 10 µM
IC50 (second compound 10 µM): > 10 µM
Compound: Cc1cccc(N(C)C(=O)C2C(O)CCN2c2nc(C)cc(C(F)(F)F)c2C#N)c1 (stereo unspecified) + Cc1cnc(CNC(=O)c2c(=O)c3ccc(N4CCCN(C)CC4)nc3n3c2sc2ccccc23)cn1
viability, T/C [1]: 101%
viability, T/C [2]: 95.6%
viability, T/C [3]: 82.5%
viability, T/C [4]: 99%
viability, T/C [5]: 95.2%
viability, T/C [6]: 101%
viability, T/C [7]: 117%
viability, T/C [8]: 93.5%
viability, T/C [9]: 90.2%
viability, T/C [10]: 85.4%
viability, T/C [11]: 93.3%
viability, T/C [12]: 92.6%
viability, T/C [13]: 90.8%
viability, T/C [14]: 86.3%
viability, T/C [15]: 79.3%
viability, T/C [16]: 82.2%
viability, T/C [17]: 92.2%
viability, T/C [18]: 84.3%
viability, T/C [19]: 83.1%
viability, T/C [20]: 81.2%
viability, T/C [21]: 74.2%
viability, T/C [22]: 76.3%
viability, T/C [23]: 80.5%
viability, T/C [24]: 74.8%
viability, T/C [25]: 73.4%
viability, T/C [26]: 72.1%
viability, T/C [27]: 71.9%
viability, T/C [28]: 69.3%
viability, T/C [29]: 72.7%
viability, T/C [30]: 66.3%
viability, T/C [31]: 72.1%
viability, T/C [32]: 70.2%
viability, T/C [33]: 68.5%
viability, T/C [34]: 67.7%
viability, T/C [35]: 72.5%
viability, T/C [36]: 63%

IC50 (second compound 0.0316 µM): > 10 µM
IC50 (second compound 0.1 µM): > 10 µM
IC50 (second compound 0.316 µM): > 10 µM
IC50 (second compound 1 µM): > 10 µM
IC50 (second compound 3.16 µM): > 10 µM
IC50 (second compound 10 µM): > 10 µM
Compound: COc1ncnc(C2CC2)c1-c1ncc2cnn(Cc3ccc(-c4nc(C(F)(F)F)cn4C(C)C)cc3)c2n1 + Cc1cnc(CNC(=O)c2c(=O)c3ccc(N4CCCN(C)CC4)nc3n3c2sc2ccccc23)cn1
viability, T/C [1]: 106%
viability, T/C [2]: 92%
viability, T/C [3]: 93.4%
viability, T/C [4]: 105%
viability, T/C [5]: 95.5%
viability, T/C [6]: 97.5%
viability, T/C [7]: 103%
viability, T/C [8]: 101%
viability, T/C [9]: 87.4%
viability, T/C [10]: 95.4%
viability, T/C [11]: 97.6%
viability, T/C [12]: 96.5%
viability, T/C [13]: 86.5%
viability, T/C [14]: 85.1%
viability, T/C [15]: 89.5%
viability, T/C [16]: 79.3%
viability, T/C [17]: 93.5%
viability, T/C [18]: 77.4%
viability, T/C [19]: 74.4%
viability, T/C [20]: 78%
viability, T/C [21]: 64.9%
viability, T/C [22]: 81.8%
viability, T/C [23]: 83.7%
viability, T/C [24]: 73%
viability, T/C [25]: 66.4%
viability, T/C [26]: 69.3%
viability, T/C [27]: 69.2%
viability, T/C [28]: 69.6%
viability, T/C [29]: 70%
viability, T/C [30]: 69%
viability, T/C [31]: 66.8%
viability, T/C [32]: 58%
viability, T/C [33]: 58.9%
viability, T/C [34]: 66.3%
viability, T/C [35]: 67%
viability, T/C [36]: 63.9%

Compound: CC[C@@]1(O)C(=O)OCc2c1cc1n(c2=O)Cc2cc3c(CN(C)C)c(O)ccc3nc2-1 + CN(C)c1ccc(Nc2c3ccc(NC(=O)CCN4CCCC4)cc3nc3cc(NC(=O)CCN4CCCC4)ccc23)cc1
IC50 (second compound 0.0316 µM): > 0.316 µM
IC50 (second compound 0.1 µM): > 0.316 µM
IC50 (second compound 0.316 µM): > 0.316 µM
IC50 (second compound 1 µM): > 0.316 µM
IC50 (second compound 3.16 µM): > 0.316 µM
IC50 (second compound 10 µM): > 0.316 µM
viability, T/C (second compound 0.0316 µM, first compound 0.000999 µM): 102%
viability, T/C (second compound 0.0316 µM, first compound 0.00316 µM): 94.6%
viability, T/C (second compound 0.0316 µM, first compound 0.00999 µM): 104%
viability, T/C [1]: 106%
viability, T/C (second compound 0.0316 µM, first compound 0.0999 µM): 90.2%
viability, T/C [3]: 76%
viability, T/C (second compound 0.1 µM, first compound 0.000999 µM): 108%
viability, T/C (second compound 0.1 µM, first compound 0.00316 µM): 111%
viability, T/C (second compound 0.1 µM, first compound 0.00999 µM): 102%
viability, T/C [7]: 85.7%
viability, T/C (second compound 0.1 µM, first compound 0.0999 µM): 91.8%
viability, T/C [9]: 84%
viability, T/C (second compound 0.316 µM, first compound 0.000999 µM): 123%
viability, T/C (second compound 0.316 µM, first compound 0.00316 µM): 97.1%
viability, T/C (second compound 0.316 µM, first compound 0.00999 µM): 101%
viability, T/C [13]: 100%
viability, T/C (second compound 0.316 µM, first compound 0.0999 µM): 87.9%
viability, T/C [15]: 84.7%
viability, T/C (second compound 1 µM, first compound 0.000999 µM): 114%
viability, T/C (second compound 1 µM, first compound 0.00316 µM): 99%
viability, T/C (second compound 1 µM, first compound 0.00999 µM): 88.5%
viability, T/C [19]: 101%
viability, T/C (second compound 1 µM, first compound 0.0999 µM): 91.1%
viability, T/C [21]: 80.1%
viability, T/C (second compound 3.16 µM, first compound 0.000999 µM): 99.8%
viability, T/C (second compound 3.16 µM, first compound 0.00316 µM): 92.6%
viability, T/C (second compound 3.16 µM, first compound 0.00999 µM): 102%
viability, T/C [25]: 93.2%
viability, T/C (second compound 3.16 µM, first compound 0.0999 µM): 103%
viability, T/C [27]: 91.9%
viability, T/C (second compound 10 µM, first compound 0.000999 µM): 102%
viability, T/C (second compound 10 µM, first compound 0.00316 µM): 95%
viability, T/C (second compound 10 µM, first compound 0.00999 µM): 100%
viability, T/C [31]: 107%
viability, T/C (second compound 10 µM, first compound 0.0999 µM): 85.8%
viability, T/C [33]: 88.5%
